Test results reported in patent US6013278A (priority 1997, dated 2000).
“Also recorded” adds a separate entry of the source.

Experiments:
[1] = tested on: human glioblastoma (U87) cells; test: Antineoplastic effect of free and liposomal AS2-1, PG and PN (cell counts); details: U-87 MG, 72 h, read-out: IC50 (concentration producing a half maximal antineoplastic effect)
[2] = tested on: cell growth; test: In vitro dose-response studies on individual components of antineoplaston therapy (cell growth); type: cell-based; details: Homo sapiens; free compound; cell line not stated (uptake example in BT-20); read-out: IC50 (antineoplastic activity)
[3] = tested on: BT-20 cells; test: Cellular uptake of free and liposomal antineoplastons into BT-20 cells (reduction of media concentration, HPLC); details: for level of uptake associated with equivalent antineoplastic activity (IC50): at IC50 concentration (~0.8 mM CN, 15 mM PN); for dependence of cellular uptake on media concentration: end of eight hour incubation; for cellular uptake (qualitative) / uptake rate on second and third days: free compound; for cellular uptake (qualitative): time course up to 72 hours; for uptake rate on second and third days: day two and three vs first day
Method: The time-course and concentration dependency of the cellular uptake of free and liposomally formulated antineoplaston agents in Examples 2, 3 and 4 were assayed by monitoring reductions in media concentrations. The uptake of these antineoplaston agents were examined in BT-20 human breast cancer cells.
Cellular uptake of free D- and free L-CN (3-phenylacetyl-amino-2, 6, piperidinedione) were investigated in BT-20 cells. Cells were plated in 200 μl of media (3,000 cells/well--96 well plates), and 24 or 96 hrs later the plating media was replaced with fresh media containing free CN at final concentrations of 100, 300, 500, 800 μM. The levels of CN remaining in the media were determined following 0, 2, 4, 6, 8, 24, 48 and 72 hours of incubation. When the cellular uptake of liposomal antineoplastons was assessed, the total levels of liposomes were equivalent across all levels of the test agents.
At the indicated times after the addition of the test compound, the media was harvested, centrifuged (110 ×g; 10 min; 4° C.) and the supernatant stored at -70° C. until assayed using a validated HPLC method. For each test agent, all concentrations were tested at all time points and there were six replicate wells at each time point. Media from the replicate wells was pooled for the HPLC analysis. Compound levels were determined with at least two HPLC injections and the variance between injections was less than 10%.
Cellular uptake of free PN was investigated in BT-20 cells.
Cellular uptake of liposomal CN was investigated in BT-20 cells.

[4] = tested on: U87 cells; test: Cellular uptake of free and liposomal PN and PG in U87 cells
Method: Experiments with this cell line plated 3000 cells per well and following a four day interval to allow the cells to enter the exponential growth phase the test agents were added. The media was replaced on day three and cell counts were obtained at day 3 and 7.

[5] = tested on: BT-20 human breast cancer cells; test: Uptake and intracellular levels of free and bound CN and PG/Iso-PG (intracellular metabolism of free and liposomal CN); type: in vitro ADME; details: 24 hr
Method: At selected times the cells were washed (3×with PBS), trypsinized, pooled, and homogenized in 200 μl of isotonic saline. […] Antineoplaston components or their derivatives found in the supernatant are considered to be unbound or "free", while antineoplaston agents in the pellet are thought to be "bound" to protein or cellular structures easily pelleted by low gravity centrifugation. […] To better understand the time course of the intracellular fate of liposomal CN, BT-20 cells were exposed as in Example 5 to liposomal CN for 1, 2 and 4 hours.

[6] = tested on: BT-20 cells; test: Antineoplastic activity of free and liposomal CN (viable cell number, trypan blue); type: cell-based, human; details: single administration, 800 uM; listed as free CN
Method: To determine whether this effect leads to enhanced antineoplastic activity, the antineoplastic activity of free and liposomal CN was examined in BT-20 cells. […] Control cells in the liposomal condition received the equivalent levels of liposomes without CN. Following a 24, 48 or 72 hr incubation, cells from six replicate wells were pooled and the number of viable cells determined using trypan blue and a hemocytometer.

[7] = tested on: cell growth; details: in vitro, cited from earlier work

Q: Which results are given for `O=C(O)Cc1ccccc1` [PN, phenylacetate]?
A: IC50 [1]: ~15 mM; IC50 [2]: ~15 mM; uptake per cell ([3]; BT-20 cells, 30 mM, comparison value): ~ 55 pmole; level of uptake associated with equivalent antineoplastic activity (IC50) [3]: ~ 30 pmoles/cell; dependence of cellular uptake on media concentration [3]: linearly related to media concentration; cellular uptake (qualitative) [3]: concentration- and time-dependent take up; time to completion of uptake ([3]; high concentrations (e.g., 30 mM)): completed within the first two hours; cellular uptake ([3]; initial media concentration 30 mM): ~ 54 pmoles/BT-20 cell; cellular uptake ([3]; media concentration 3.0 mM): ~ 14 pmoles/BT-20 cell; uptake per cell ([4]; 30 mM free PN, U87 cells, 3 day): 50 pmol; uptake of free compound compared (PN vs PG) ([4]; 3 day interval): equivalent and is concentration dependent

Q: For `O=C1CCC(NC(=O)Cc2ccccc2)C(=O)N1` (centres unmarked) [CN, 3-phenylacetyl-amino-2,6, piperidinedione], which “Uptake of CN” value ([5]; 800 μM CN (53 pmole/cell) added) is on record?
A: The value was 43.2 pmole/cell.

Q: What about the “Free intracellular PG/Iso-PG” value ([5]; 800 μM CN added) of the same compound?
A: Its value is 36.7 pmole/cell.

Q: And the “Free intracellular CN” value ([5]; 800 μM, ND = Not detected)?
A: Its value is “intact CN cannot be found inside the cells”.

Q: What about the IC50 [2] of the same compound?
A: Its IC50 is ~0.8 mM.

Q: What about the “cellular uptake by 72 hours” value ([3]; 72 hours) of the same compound?
A: The value was “approximating that produced by liposomal CN during a two hour incubation”.

Q: And the “level of uptake associated with equivalent antineoplastic activity (IC50)” value [3]?
A: Its value is ~ 30 pmoles/cell.

Q: What about the “dependence of cellular uptake on media concentration” value [3] of the same compound?
A: Its value is “linearly related to media concentration”.

Q: What about the “antineoplastic activity / suppression of BT-20 cell growth” value [6] of the same compound?
A: The value was “ineffective in suppressing BT-20 cell growth; also recorded: no antineoplastic activity”.

Q: What about the “suppression of cell growth” value ([7]; at ~0.8 mM) of the same compound?
A: The value was 50%.

Q: And the “antineoplastic activity on a molar basis” value ([7]; relative to other components)?
A: The value was “most potent antineoplastic activity”.

Q: For `O=C1CC[C@H](NC(=O)Cc2ccccc2)C(=O)N1` [L-CN], which “cellular uptake during the first six hours” value ([3]; free D-CN vs free L-CN) is on record?
A: Its value is “more effectively than free D-CN”.

Q: What about the “uptake rate on second and third days” value [3] of the same compound?
A: Its value is “the rate of uptake is diminished on the second and third days of the incubation”.

Q: And the “cellular uptake (qualitative)” value [3]?
A: Its value is “rapidly and extensively taken up”.

Q: Which results are given for `O=C1CC[C@@H](NC(=O)Cc2ccccc2)C(=O)N1` [D-CN]?
A: uptake rate on second and third days [3]: do not exhibit this late stage reduction in CN uptake; cellular uptake (qualitative) [3]: rapidly and extensively taken up
